Data on 44 molecules can be found in patent US10034886B2, “GLP-1 receptor modulators” (Celgene International II SÀRL, priority 2014, dated 2018).

Where two headings read alike, the source gives them in different places.

The assay deals with T1, GLP-1R (Homo sapiens, UniProt P43220).
T1 construct: host or cells: GLP-1R CRE-bla CHO-K1 cells
The experiment in a line: EC20 GLP-1(9-36) PAM cAMP assay: dose response of compound in the presence of fixed concentration of GLP-1(9-36). In kind it is cell-based. Conditions: GLP-1R CRE-bla CHO-K1 cells, read-out: EC20 GLP-1(9-36) PAM EC50. Summed up:
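Positive allosteric modulation read as cAMP accumulation: compound titrations (12 points) combined with an EC20 level of GLP-1(9-36) on CHO-K1 GLP-1R CRE-bla cells, IBMX present, 30 min, 37 °C, pH 7.4 buffer. Luminescence converted to cAMP via standards; non-linear fit gave EC50 and Emax.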
Background: Changes in cAMP serve as a functional read-out for many G protein-coupled receptors.

[1] abbreviates: dose response of compound in presence of fixed concentration of GLP-1(9-36).
Where [2] appears, read: compound dose response with fixed concentration of GLP-1(9-36).

T1 sequence (P43220 24-463): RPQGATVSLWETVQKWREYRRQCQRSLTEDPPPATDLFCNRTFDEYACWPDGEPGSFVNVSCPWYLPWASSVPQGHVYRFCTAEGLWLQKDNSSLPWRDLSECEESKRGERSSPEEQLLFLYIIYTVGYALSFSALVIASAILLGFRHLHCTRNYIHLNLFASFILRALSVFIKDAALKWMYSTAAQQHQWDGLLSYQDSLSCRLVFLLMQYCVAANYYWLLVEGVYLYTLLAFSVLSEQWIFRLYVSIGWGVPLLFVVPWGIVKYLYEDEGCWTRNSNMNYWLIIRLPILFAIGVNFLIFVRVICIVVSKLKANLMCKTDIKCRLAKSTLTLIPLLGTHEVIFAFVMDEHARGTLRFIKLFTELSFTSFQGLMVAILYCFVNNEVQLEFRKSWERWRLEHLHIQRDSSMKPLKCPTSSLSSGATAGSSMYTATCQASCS
T1 sequence (P01275 100-127 partner limits assumed): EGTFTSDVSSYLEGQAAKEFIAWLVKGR

Turning to `CCCCCCCOc1ccc(-c2cnc(-c3ccc(C[C@H](NC(=O)c4ccc(C(C)(C)C)s4)C(=O)N[C@@H](CC(=O)OCc4ccccc4)C(=O)O)cc3)nc2)cc1` [Compound 524, (S)-4-(benzyloxy)-2-((S)-2-(5-(tert-butyl)thiophene-2-carboxamido)-3-(4-(5-(4-(heptyloxy)phenyl)pyrimidin-2-yl)phenyl)propanamido)-4-oxobutanoic acid], the EC50 (as a rule, the midpoint of the concentration-response curve) under setting [1] was < 0.8 µM. Turning to `C[C@@H](NC(=O)[C@H](Cc1ccc(-c2ncc(-c3ccc(Cl)cc3)cn2)cc1)NC(=O)c1ccc(C(C)(C)C)s1)C(=O)O` [Compound 1029], under setting [1], the EC50 is 2.5 to 5 µM. Same read-out and setting: in the case of `CC[C@H]1CC[C@H](c2ccc(-c3cnc(-c4ccc(C[C@H](NC(=O)c5ccc(C(C)(C)C)s5)C(=O)N[C@@H](C)C(=O)O)cc4)nc3)cc2)CC1` [Compound 1067] it was 0.8 to 2.5 µM.

For `CCCCCCCOc1ccc(-c2cnc(-c3ccc(CC(NC(=O)c4ccc(C(C)(C)C)s4)C(=O)N[C@H](C(=O)O)C(C)C)cc3)nc2)cc1` (some centres unmarked) [Compound 407], the EC50 under setting [1] was < 0.8 µM. Still for that read-out and setting: the same measure for `CCCCCCCOc1ccc(-c2cnc(-c3ccc(C[C@H](NC(=O)c4ccc(C(C)(C)C)s4)C(=O)N[C@@H](CC(=O)NCC(N)=O)C(=O)O)cc3)nc2)cc1` [Compound 518]: 0.8 to 2.5 µM. Consider `CCC[C@H]1CC[C@H](C2CCN(c3cnc(-c4ccc(C[C@H](NC(=O)c5ccc(C(C)(C)C)s5)C(=O)N[C@H](Cc5c[nH]cn5)C(=O)O)cc4)nc3)CC2)CC1` [Compound 1446], for which the 50% effective concentration (EC50) under setting [2] was < 0.8 µM. Regarding `CCCC(C)COc1ccc(-c2cnc(-c3ccc(C[C@H](NC(=O)c4ccc(C(C)(C)C)cc4)C(=O)NCCC(=O)O)cc3)nc2)cc1` (some centres unmarked) [Compound 707], the EC50 under setting [1] lay within 5 to 10 µM.

Take `CC1(C)CCC(c2ccc(-c3cnc(-c4ccc(C[C@H](NC(=O)c5ccc(C(C)(C)C)s5)C(=O)O)cc4)nc3)cc2)CC1` [Compound 1344]: the EC50 under setting [2] fell in the range of 0.8 to 2.5 µM. As to `CCCCCCCOc1ccc(-c2cnc(-c3ccc(C[C@@H](NC(=O)c4ccc(C(C)(C)C)cc4)C(=O)N[C@H](C)C(=O)O)cc3)nc2)cc1` [Compound 437], under setting [1], the EC50 was < 0.8 µM. Same read-out and setting: the same measure for `CCCCCCCOc1ccc(-c2cnc(-c3ccc(C[C@H](NC(=O)c4ccc(C(C)(C)C)cc4)C(=O)N[C@@H](Cc4ccccn4)C(=O)O)cc3)nc2)cc1` [Compound 542]: < 0.8 µM. Take `CCC[C@H]1CC[C@H](C2CCN(c3cnc(-c4ccc(C[C@H](NC(=O)c5ccc(C(C)(C)C)s5)C(=O)N5CCCC[C@H]5C(=O)O)cc4)nc3)CC2)CC1` [Compound 1455]: the EC50 under setting [2] was < 0.8 µM. As to `CCCCCOc1ccc(-c2cnc(-c3ccc(C[C@H](NC(=O)c4ccc(C(C)(C)C)cc4)C(=O)N[C@H](C)C(=O)O)cc3)nc2)cc1` [Compound 718], the EC50 under setting [1] was 2.5 to 5 µM. For the molecule `CC(C)(C)c1ccc(C(=O)N[C@@H](Cc2ccc(-c3ncc(-c4ccc(-c5ccc(F)cc5)cc4F)cn3)cc2)C(=O)N2CC(C(=O)O)C2)s1` [Compound 1213], the EC50 under setting [2] is < 0.8 µM. In the case of `CCCCCCCOc1ccc(-c2cnc(-c3ccc(C[C@H](NC(=O)c4ccc(C(C)(C)CC)cc4)C(=O)N4CC(C(=O)O)C4)cc3)nc2)cc1` [Compound 1121], the half-maximal effective concentration (EC50) under setting [1] is 0.8 to 2.5 µM.

As for `CCC[C@H]1CC[C@H](C2CCN(c3cnc(-c4ccc(C[C@H](NC(=O)c5ccc(C6(C)CC6)cc5)C(=O)N5CC(C(=O)O)C5)cc4)nc3)CC2)CC1` [Compound 1519], the EC50 under setting [2] is < 0.8 µM.

`CCCCCCc1noc(-c2ccc(-c3cnc(-c4ccc(C[C@H](NC(=O)c5ccc(C(C)(C)C)cc5)C(=O)NCCC(=O)O)cc4)nc3)cc2)n1` [Compound 756]: the EC50 under setting [1] fell in the range of 5 to 10 µM. Turning to `CC(C)CCCOc1ccc(-c2cnc(-c3ccc(C[C@H](NC(=O)c4ccn(C(C)(C)C)c4)C(=O)N4CC(C(=O)O)C4)cc3)nc2)cc1` [Compound 1242], under setting [2], the EC50 was in the range of 0.8 to 2.5 µM. Consider `CCCCC1CCN(C2CCN(c3cnc(-c4ccc(C[C@H](NC(=O)c5ccc(C(C)(C)C)s5)C(=O)N5CC(C(=O)O)C5)cc4)nc3)CC2)C(=O)C1` (some centres unmarked) [Compound 1506], for which the concentration for a half-maximal effect (EC50) under setting [2] was 5 to 10 µM. Consider `CCCCCCCCOc1ccc(-c2cnc(-c3ccc(C[C@H](NC(=O)c4ccc(C(C)(C)C)s4)C(=O)NC(C(=O)O)C(O)c4ccccc4)cc3)nc2)cc1` (some centres unmarked) [Compound 926], for which the 50% effective concentration (EC50) under setting [1] fell in the range of 0.8 to 2.5 µM. Take `CCCCCCCOc1ccc(-c2cnc(-c3ccc(C[C@H](NC(=O)c4ccc(C(C)(C)C)s4)C(=O)N4CC[C@H]4C(=O)O)cc3)nc2)cc1` [Compound 668]: under setting [1], the EC50 fell in the range of 0.8 to 2.5 µM. Same read-out and setting: the same measure for `CCCCCCCOc1ccc(-c2cnc(-c3ccc(C[C@H](NC(=O)c4ccc(C(C)(C)C)cc4)C(=O)N4CC[C@H](C(=O)O)C4)cc3)nc2)cc1` [Compound 632]: 0.8 to 2.5 µM. `Cc1cccc(/C=C/c2cnc(-c3ccc(C[C@H](NC(=O)c4ccc(C(C)(C)C)s4)C(=O)N[C@H](C)C(=O)O)cc3)nc2)c1` [Compound 1254]: the EC50 under setting [2] fell in the range of 0.8 to 2.5 µM. On to `Cc1ccc(/C=C/c2cnc(-c3ccc(C[C@H](NC(=O)c4ccc(C(C)(C)C)s4)C(=O)N4CCC[C@H]4C(=O)O)cc3)nc2)cc1` [Compound 1125], for which the EC50 under setting [1] fell in the range of 0.8 to 2.5 µM. The same measure, in the same setting: in the case of `CCCCCCCOc1ccc(-c2cnc(-c3ccc(CC(NC(=O)c4ccc(C(C)(C)C)s4)C(=O)N[C@H](C(=O)O)[C@@H](C)O)cc3)nc2)cc1` (some centres unmarked) [Compound 424] it was < 0.8 µM. On to `C[C@@H](NC(=O)[C@H](Cc1ccc(-c2ncc(-c3ccc(-c4ccnn4C)cc3)cn2)cc1)NC(=O)c1ccc(C(C)(C)C)s1)C(=O)O` [Compound 1297], for which the EC50 under setting [2] is 2.5 to 5 µM. Consider `CCCCCCCOc1ccc(-c2cnc(-c3ccc(C[C@H](NC(=O)c4ccc(C(C)(C)C)s4)C(=O)Nc4ccc(C(F)(F)F)cc4)cc3)nc2)cc1` [Compound 965], for which the EC50 under setting [1] is 5 to 10 µM.

As for `CC(C)Cc1ccc(-c2ccc(-c3cnc(-c4ccc(C[C@H](NC(=O)c5ccc(C(C)(C)C)s5)C(=O)N5CC(C(=O)O)C5)cc4)nc3)c(F)c2)cc1` [Compound 1221], the EC50 under setting [2] is < 0.8 µM. Consider `C[C@@H](NC(=O)[C@H](Cc1ccc(-c2ncc(-c3ccc(-c4ccc(F)cc4F)cc3)cn2)cc1)NC(=O)c1ccc(C(C)(C)C)s1)C(=O)O` [Compound 1149], for which the EC50 under setting [1] lay in the range of 5 to 10 µM.

Regarding `CCCCCCCOc1ccc(-c2cnc(-c3ccc(C[C@H](NC(=O)c4ccc(C(C)(C)C)s4)C(=O)N[C@H](CCN)C(=O)O)cc3)nc2)cc1` [Compound 411], the 50% effective concentration (EC50) under setting [1] fell in the range of 0.8 to 2.5 µM. With `CCCc1ccc(-c2ccc(-c3cnc(-c4ccc(C[C@H](NC(=O)c5ccc(C(C)(C)CC)cc5)C(=O)N5CC(C(=O)O)C5)cc4)nc3)c(F)c2)cc1` [Compound 1402], the EC50 under setting [2] was < 0.8 µM.

On to `CC[C@H]1CC[C@H](c2ccc(-c3cnc(-c4ccc(C[C@H](NC(=O)c5ccc(C(C)(C)C)cc5)C(=O)O)cc4)nc3)cc2)CC1` [Compound 1366], for which the EC50 under setting [2] is < 0.8 µM. As to `CCCCCCCOc1ccc(-c2cnc(-c3ccc(C[C@H](NC(=O)c4ccc(C(C)(C)C)s4)C(=O)N4CC5(CC(C(=O)O)C5)C4)cc3)nc2)cc1` [Compound 877], the EC50 under setting [1] was in the range of 0.8 to 2.5 µM. With `CCC[C@H]1CC[C@H](C2CCN(c3cnc(-c4ccc(C[C@H](NC(=O)c5ccc(C(C)(C)C)s5)C(=O)N5CC(C(=O)O)C5)cc4)nc3)CC2)CC1` [Compound 1413, 1-((S)-2-(5-(tert-butyl)thiophene-2-carboxamido)-3-(4-(5-(4-((1s,4r)-4-propylcyclohexyl)piperidin-1-yl)pyrimidin-2-yl)phenyl)propanoyl)azetidine-3-carboxylic acid], under setting [2], the EC50 is < 0.8 µM.

Turning to `CCCCc1ccc(-c2ccc(-c3cnc(-c4ccc(C[C@H](NC(=O)c5ccc(C(C)(C)C)s5)C(=O)N[C@H](C)C(=O)O)cc4)nc3)cc2)cc1` [Compound 1135], the EC50 under setting [1] is 0.8 to 2.5 µM.

As for `CCCCCCCOc1ccc(-c2cnc(-c3ccc(C[C@H](NC(=O)c4ccc(CCC)cc4)C(=O)N4CCC[C@H]4C(=O)O)cc3)nc2)cc1` [Compound 1073], under setting [1], the EC50 lay within 0.8 to 2.5 µM. Same read-out and setting: in the case of `CCCCCCCOc1ccc(-c2cnc(-c3ccc(C[C@H](NC(=O)c4ccc(C(C)(C)C)s4)C(=O)N[C@H]4C[C@H](C(=O)O)C4)cc3)nc2)cc1` [Compound 875] it was 0.8 to 2.5 µM. In the case of `CC(C)(C)c1ccc(C(=O)N[C@@H](Cc2ccc(-c3ncc(-c4ccc(-c5ccc(C(F)(F)F)cc5F)cc4F)cn3)cc2)C(=O)N2CC(C(=O)O)C2)s1` [Compound 1222], the EC50 under setting [2] was < 0.8 µM. In the case of `CCCCCCCOc1ccc(-c2cnc(-c3ccc(C[C@H](NC(=O)c4ccc(C(C)(C)C)s4)C(=O)NCC(=O)NCCC(=O)O)cc3)nc2)cc1` [Compound 487], under setting [1], the EC50 was < 0.8 µM. Same read-out and setting: the same measure for `Cc1ccccc1-c1ccc(-c2cnc(-c3ccc(C[C@H](NC(=O)c4ccc(C(C)(C)C)s4)C(=O)N[C@H](C)C(=O)O)cc3)nc2)cc1` [Compound 1023]: 2.5 to 5 µM. Regarding `CCc1ccc(C2CCN(c3cnc(-c4ccc(C[C@H](NC(=O)c5ccc(C(C)(C)C)s5)C(=O)N5CC(C(=O)O)C5)cc4)nc3)CC2)cc1` [Compound 1474], the EC50 under setting [2] was < 0.8 µM.

On to `CCCCCCCOc1ccc(-c2cnc(-c3ccc(C[C@H](NC(=O)c4ccc(C(C)(C)C)cc4)C(=O)N[C@@H](CC(=O)O)C(=O)N4CCCCC4)cc3)nc2)cc1` [Compound 504], for which, under setting [1], the EC50 fell in the range of 2.5 to 5 µM.

Turning to `CCCCCCCOc1ccc(-c2cnc(-c3ccc(C[C@H](NC(=O)c4ccc(C(C)(C)C)s4)C(=O)N[C@H](C(=O)O)[C@H](O)C(C)C)cc3)nc2)cc1` [Compound 881], the EC50 under setting [1] fell in the range of 0.8 to 2.5 µM.

On to `CC[C@H]1CC[C@H](c2ccc(-c3cnc(-c4ccc(C[C@H](NC(=O)c5ccc(C(C)(C)C)s5)C(=O)O)cc4)nc3)cc2)CC1` [Compound 1058, (S)-2-(5-(tert-butyl)thiophene-2-carboxamido)-3-(4-(5-(4-((1r,4r)-4-ethylcyclohexyl)phenyl)pyrimidin-2-yl)phenyl)propanoic acid], for which, under setting [1], the EC50 was < 0.8 µM. As to `CCCc1ccc(-c2ccc(-c3cnc(-c4ccc(C[C@H](NC(=O)c5ccc(C(C)C)s5)C(=O)N5CC(C(=O)O)C5)cc4)nc3)c(F)c2)cc1` [Compound 1398], under setting [2], the EC50 is < 0.8 µM.
